Values joined by “and” are separate entries in the source; they are usually repeats but may differ in a detail not shown here. Identical values can stand only once. Like-named read-outs stand apart in the source and are kept apart here.
Tests used:
pulmonary vital capacity = settings: digestive disorders, nervous troubles, cardiac troubles, neurological symptoms; cited from earlier work
bronchial smooth muscles = settings: cited from earlier work
[1] = cited from earlier work
in vivo = settings: rat, po, 15 mg/kg
Description: Groups of the so-treated animals were killed by carotid section 15', 30', 1 h, 2 h, 3 h, 4 h, 6 h, and 8 h after administration of the theophylline. The blood was collected in herparinized, centrifuged tubes, and the plasma was decanted. The theophylline blood level was determined in plasma samples after extraction by liquid chromatography.

[2] = cited from earlier work; remark: listed apart in the source
phosphodiesterase = settings: cited from earlier work
cyclic AMP = settings: cited from earlier work
mastocytes = settings: hypersensitivity reactions; cited from earlier work
[3] = oral toxicity (LD50) in mice; settings: mouse, in vivo, read-out: LD50 orally in mice
[4] = clinical theophylline blood level on 4th day, theophylline alone or with idrocilamide (Tables 3 and 4); settings: inferred from clinical blood levels
Description: A series of comparative clinical tests were conducted. Five male adults asthma patients took a simultaneous dose of 200 mg theophylline and 100 mg idocrilamide twice a day orally, at 0800 and 2000 hours. On the 4th day, after establishment of a state of equilibrium, the theophylline blood level in the patients under treatment was determined at various times. The determinations were made by highpressure liquid chromatography (Waters apparatus, Lichrosorb RP 18 adsorbent of Merck, methanol, formamide, monopotassium phosphate solvent. Detection by UV spectrophotometry).
The time in hours (t) after the morning dose is plotted on the x-axis, the time 0 corresponding to the dose of medicine on the 4th day. The theophylline blood concentrations in mg/l (th mg/l) are plotted on the y-axis.

## Cn1c(=O)c2[nH]cnc2n(C)c1=O [theophylline, 1,3-dimethylxanthine]
Pulmonary vital capacity
  concentration above which intolerance signs can appear: > 20000 ng/mL
Bronchial smooth muscles; aerosol
  effect of intrapulmonary administration by aerosol: ineffective
Bronchial smooth muscles
  bronchodilating action: active toward all bronchoconstrictive agents
[1]
  solubility in water: slightly soluble in water
In vivo
  AUC at 8 h: 95.1 µg·h/mL
  AUC(0-inf): 117 µg·h/mL
  Cmax: 20300 ng/mL
  concentration at 0.25 h: 17500 ng/mL
  concentration at 0.5 h: 20300 ng/mL
  concentration at 1 h: 18900 ng/mL
  concentration at 2 h: 16700 ng/mL
  concentration at 3 h: 13900 ng/mL
  concentration at 4 h: 12000 ng/mL
  concentration at 6 h: 8040 ng/mL
  concentration at 8 h: 4320 ng/mL
  half-life: 3.47 h
[2]; in vivo
  metabolism: metabolized at the hepatic level to give inactive metabolites eliminated by the kidneys
[2]; normal adult
  half-life: ~6 h and 4 h
[2]
  oral absorption: very good
[2]; listed as Theophylline
  oral absorption: absorbed very well orally
[2]; rectal
  rectal absorption: very irregular
phosphodiesterase
  inhibition of phosphodiesterase: competitive inhibition
Cyclic AMP
  tissue increase of cyclic AMP: tissue increase of cyclic AMP
mastocytes
  inhibiting action on mastocytes: partially inhibiting their degranulation

## CC1(C)OCCN1C(=O)C=Cc1ccc(F)cc1 [Compound VIII, 2,2-dimethyl-3-(4-fluorocinnamoyl) oxazolidine]
[3]
  LD50: 2000 mg/kg

## CC1(C)OCCN1C(=O)C=Cc1ccc(Cl)cc1 [Compound VII, 3-(4-chlorocinnamoyl)-2,2-dimethylloxazolidine]
[3]
  LD50: > 3200 mg/kg

## CN(CCO)C(=O)C=Cc1ccccc1 [Compound III, N-methyl, N-(2-hydroxyethyl)cinnamamide]
[3]
  LD50: 3000 mg/kg

## O=C(C=Cc1ccccc1)NCCO [Compound I, N-(2-hydroxyethyl)cinnamamide]
[4]
  action mechanism on theophylline metabolism: interference of idrocilamide on the metabolism of theophylline
[3]
  LD50: 3000 mg/kg

## O=C(C=Cc1ccc(Cl)cc1)NCCO [Compound II, N-(2-hydroxyethyl)-4-chlorocinnamamide]
[3]
  LD50: 1600 mg/kg

## CC(CO)NC(=O)C=Cc1ccccc1 (stereo not shown) [Compound IV, N-[2-(1-hydroxypropyl)]cinnamamide]
[3]
  LD50: 3200 mg/kg

## O=C(C=Cc1ccc(F)cc1)NCCO [Compound V, N-(2-hydroxyethyl)-4-fluorocinnamamide]
[3]
  LD50: > 3200 mg/kg

## CC1(C)OCCN1C(=O)C=Cc1ccccc1 [Compound IX, 3-cinnamoyl-2,2-dimethyloxazolidine]
[3]
  LD50: > 3200 mg/kg

## CC(=O)c1ccc(C=CC(=O)NCCO)cc1 [Compound VI, N-(2-hydroxyethyl)-4-acetylcinnamamide]
[3]
  LD50: 3200 mg/kg
